# Assay results published in US20220096421A1, “Active Ingredient, Pharmaceutical Composition, and Medicinal Product for HIV and AIDS Therapy” (priority 2019, published 2022).
# “Also recorded” adds a separate entry of the source. Read-outs that look alike come from different tables or passages of the source.
# Experiments:
# HIV-1 = test: Efficacy, safety and optimal dosage study in previously untreated HIV-1-infected patients versus Efavirenz; details: for development of HIV-1 resistance: patients, at the studied doses; for viral load decrease: week 12; for viral load decrease / viral load change: 20 mg MMSCs of formula Ib, 600 mg Efavirenz; for viral load change: week 24
# Method: Doses of 20 mg/day (60 patients) and 40 mg/day (60 patients) of MMSCs of formula Ib were studied versus 600 mg/day of Efavirenz (30 patients).
# Doses of 20.7 mg/day (60 patients) and 41.4 mg/day (60 patients) of MMSCs of formula Ib were studied in comparison with Efavirenz (600 mg/day, 30 patients).
# [1] = Clinical trial in healthy volunteers, pharmacokinetics with daily administration of capsules; details: constant administration, average
# Method: The concentration-time pattern of metabolite Ia in the blood was evaluated by its content in the plasma and blood cells.
# [2] = Pharmacokinetics in healthy volunteers with repeated weekly administration; assay type: in vivo, human; details: for Cmax / concentration at 168 h: human, in vivo, oral; for Cmax: read-out: Cmax of active metabolite Ia in the first week; for concentration at 168 h: read-out: concentration of active metabolite Ia a week later (168 hours)
time of dosing to maximum plasma concentration of active metabolite Ia ([1]; 10 mg/day),time of dosing to maximum plasma concentration of active metabolite Ia ([1]; 20 mg/day),time of dosing to maximum plasma concentration of active metabolite Ia ([1]; 30 mg/day),"time to maximum concentration of active metabolite Ia in the first week ([2]; 41.4, 82.8 or 124.2 mg/week, after taking the drug)",Cmax ([2]; 41.4 mg/week),concentration at 168 h ([2]; 41.4 mg/week),Cmax ([2]; 82.8 mg/week),concentration at 168 h ([2]; 82.8 mg/week),Cmax ([2]; 124.2 mg/week),concentration at 168 h ([2]; 124.2 mg/week),SMILES,development of HIV-1 resistance (HIV-1),viral load decrease (HIV-1),viral load change (HIV-1),"occurrence of a viral load reduction of 10 times and more (HIV-1; 20 mg versus Efavirenz 600 mg, p=0.053)","efficacy difference between the MMSCs of formula Ib therapy groups (HIV-1; 20 versus 40 mg/day groups, p=0.804)",serious adverse events (HIV-1; HIV-1-infected patients),"effectiveness in reducing the viral load to <400 copies/ml (HIV-1; doses of 20 and 40 mg, over a period of 12 weeks, versus Efavirenz 600 mg/day)",advantage of the 20 mg group over the Efavirenz 600 mg group (HIV-1; p=0.0237),"frequency of achieving an undetectable HIV-1 RNA level (HIV-1; week 36, versus Efavirenz, p=0.408)"
–,–,–,–,–,–,–,–,–,–,"O=C1Nc2ccc(Cl)cc2[C@@](C#CC2CC2)(C(F)(F)F)O1 [Efavirenz, reference compound]",No development of HIV-1 resistance was established; also recorded: has not been established,−2.7±1.0,−3.3±0.8,–,–,–,–,–,–
9.8 days,7.5 days,6.7 days,approximately 5.5 hours,34.5 ng/mL,26.1 ng/mL,63.6 ng/mL,36.9 ng/mL,117 ng/mL,57.2 ng/mL,N#Cc1cc(Cl)cc(Oc2c(Br)ccc(CC(=O)Nc3ccc(S(N)(=O)=O)cc3Cl)c2F)c1 [Ia],–,–,–,–,–,–,–,–,–
–,–,–,–,–,–,–,–,–,–,"CCC(=O)[N-]S(=O)(=O)c1ccc(NC(=O)Cc2ccc(Br)c(Oc3cc(Cl)cc(C#N)c3)c2F)c(Cl)c1.[Na+] [MMSCs of formula Ib, sodium {[4-({[4-bromo-3-(3-chloro-5-cyanophenoxy)-2-fluorophenyl]acetyl}amino)-3-chlorophenyl]-sulfonyl}(propanoyl)azanide]",No development of HIV-1 resistance was established; also recorded: has not been established,−2.8±0.7,−3.3±0.7,tendency for a statistical difference,did not differ in effectiveness; also recorded: did not differ in efficacy,No serious adverse events were observed,not inferior to Efavirenz,statistically significant,did not statistically differ; also recorded: did not differ statistically
